“And” between values parts separate entries of the source, which are not always exact repeats. Equal entries are not always repeated. Where two headings read alike, the source gives them in different places.
How the values were obtained:
[1] = Plasma nicotinamide, NAL and NAL-X levels by HPLC after i.p. nicotinylalanine with or without ASA in uninfected mice; format: in vivo, C57BL/6 mice; conditions: for Plasma nicotinamide (NAm) level / concentration at 2 h: mean ± S.E., N=8; for concentration at 2 h: mouse, plasma, ip, 400 mg/kg, read-out: Plasma nicotinylalanine (NAL) level
Description: The concentration of nicotinamide and its major metabolites were determined by comparison of peak area ratios of the unknown versus internal standard (6-methylnicotinamide, Sigma Chemical Company) to the standard curves run in control mouse blood plasma.
Mice were treated with racemic nicotinylalanine alone (400 mg/kg) or in combination with acetyl salicylic acid (ASA) at a dose of either 20 mg/kg or 100 mg/kg body weight. […] Control mice received the vehicle for the drug compositions, being phosphate buffered saline (PBS), at the same volume on the same dose schedule as the drug-treated mice. Chronic dosing was performed daily for two weeks, Monday through Friday, and one group of mice received only a single (acute) dose of nicotinylalanine. All mice were killed two hours after their final dose and blood was collected by cardiac puncture and stored on ice, until centrifugation in a microfuge at 10,000 rpm to obtain plasma.
Concentrations of nicotinamide, nicotinamide-oxide, 1-methyl-nicotinamide, and nicotinylalanine extracted from 90% methanol, dried under N2, and reconstituted in water as above were determined by comparison of the peak area ratios of the unknown vs. the internal standard to the standard curve. Concentrations of the unidentified nicotinylalanine metabolite (NAL-X) were determined in the same way as above, except peaks were compared to the standard curve for known nicotinylalanine. The results are expressed as nanomoles of nicotinamide and nicotinylalanine per ml of plasma (nmol/ml).

[2] = test system: LP-BM5 MuLV Retrovirus; test: MAIDS model, interim sacrifices: body weight, disease score, spleen weight; format: in vivo, C57BL/6 mice; conditions: for Body Wt. / Spleen Wt.: individual mouse; for Disease Score: scores 0 through +4, individual mouse
Description: This study was designed to determine whether nicotinylalanine (NAL) alone or in combination with acetylsalicylic acid (ASA) will prevent or alter the course of murine retroviral-induced immunodeficiency disease, MAIDS, in C57BL/6 female mice. The LP-BM5 MuLV virus used for these studies was prepared from chronically infected SC-1 cells (ATCC Cat. No. CRL-1404), as described by Yetter R. A. et al., J. Exp. Med., 168, 623-635, 1988. […] The MAIDS model is well characterized and reproducible in the laboratory, as described by Mosier D. E. et al., J. Exp. Med. 161, 766-784, 1985.
Measures of disease progression followed the methods developed by Eiseman et al., 1991 (Ibid). Disease scores 0 through +4 are based upon body weight gain and palpable alterations in the size of lymph nodes and spleen. Severity of disease is scored as follows: 0.5, increased body weight and variably detected increase in size of any one lymph node or spleen; +1, clearly detectable increase in the size of a lymph node and spleen; +2, readily detectable (greater than 0.3 cm in diameter) increased size in more than one lymph node and, in particular, enlargement of subcervical, brachial or axillary nodes; +3, increased size of all palpable nodes and palpable splenomegaly (≥0.3 grams); +4, advanced disease with extensive splenomegaly (>1.0 grams) and lymphadenopathy.
Specific pathogen free, female C57BL/6 mice (5 weeks of age) were purchased from Charles River Breeding Laboratories. All mice were allowed one week to acclimate to housing facilities prior to randomization for study. Animals were marked for identification and placed in microisolator cages with identifying cards (5 mice/cage), where autoclaved food and water were provided ad libitum.
NAL and ASA were formulated under sterile conditions according to preformulation methods outlined in Remington's Pharmaceutical Sciences Handbook, 18th Edition, 1990, ibid). NAL and ASA were dissolved in sterile phosphate-buffered normal saline solution (i.e., vehicle; Biofluids Inc., Lot 413054), adjusted to between pH 7.2 to 7.4 with […], sterilized by filtration through 0.2 μm bottle-type filters, and dispersed into sterile glass vials, sealed and capped (Wheaton Inc.).
Except for Group 6 (which began treatment 2 weeks after virus inoculation),test drug injections began 1 day after virus infection and continued every day except weekends (i.e., 5 times per week).
Disease progression was monitored by measuring serum IgM levels by ELISA on all animals at monthly intervals during the course of disease. Three mice per group were randomly selected and sacrificed at monthly intervals (end of month one through four) of the study. Disease scores for each animal were recorded weekly based upon palpation of lymph nodes and spleen. Complete gross necropsies were performed on these euthanized animals and the ratio of recorded spleen to body weights was an additional indicator of diseases progression. […] Infection was quantified by ecotropic virus XC plaque assays of spleens removed from the interim sacrificed animals.

[3] = acute (single) NAL 400 mg/kg i.p., two hours after dose
[4] = chronic (2 Week) dosing of nicotinylalanine alone
[5] = chronic (2 weeks) NAL 400 mg/kg i.p. alone, two hours after last dose
[6] = two hours after acute i.p. 400 mg/kg NAL
[7] = 1 month postinoculation, NAL 200 mg/kg i.p. (no ASA)
[8] = 1 month postinoculation, NAL 400 mg/kg i.p., delayed Rx 2 weeks
[9] = 1 month postinoculation, treatment from day 1: NAL 400 mg/kg i.p., ASA 20 mg/kg i.p., AZT 1 mg/ml in drink water
[10] = 2 months postinoculation, NAL 200 mg/kg i.p. (no ASA)
[11] = 2 months postinoculation, NAL 400 mg/kg i.p., delayed Rx 2 weeks
[12] = 2 months postinoculation, treatment from day 1: NAL 400 mg/kg i.p., ASA 20 mg/kg i.p., AZT 1 mg/ml in drink water
[13] = 3 months postinoculation, NAL 400 mg/kg i.p., delayed Rx 2 weeks
[14] = 3 months postinoculation, treatment from day 1: NAL 400 mg/kg i.p., ASA 20 mg/kg i.p., AZT 1 mg/ml in drink water
[15] = 4 months postinoculation, NAL 400 mg/kg i.p., delayed Rx 2 weeks
[16] = 4 months postinoculation, treatment from day 1: NAL 400 mg/kg i.p., ASA 20 mg/kg i.p., AZT 1 mg/ml in drink water

## NC(CC(=O)c1cccnc1)C(=O)O (racemic) [NAL, γ-(3-pyridyl)-γ-oxo-α-aminobutyrate]
[1]; [3]
  Plasma nicotinamide (NAm) level: 7.4 ± 2.3 nmol/mL
  concentration at 2 h: 115 ± 65.6 µM
[1]; [4]
  Change in plasma nicotinylalanine levels: nearly ten-fold decrease
  Nicotinamide plasma level (in words): return to nearly baseline levels of nicotinamide
[1]; [5]
  Plasma nicotinamide (NAm) level: 4.7 ± 1.1 nmol/mL
  concentration at 2 h: 11.2 ± 4.5 µM
[1]; [6]
  Nicotinamide plasma level versus PBS-injected controls: about twice those found in PBS-injected controls
  Plasma level of NAL versus NAL-X: about twice as high
[2]; [7]
  Body Wt.: 21.9 Grams and 21.8 Grams and 23.4 Grams
  Spleen Wt.: 0.080 Grams and 0.257 Grams and 0.123 Grams
  Disease Score: 0 and 1 and 0.5
[2]; [8]
  Body Wt.: 20.4 Grams and 20.5 Grams and 22.3 Grams
  Spleen Wt.: 0.103 Grams and 0.151 Grams and 0.136 Grams
  Disease Score: 0 and 0.5
[2]; [9]
  Body Wt.: 21.3 Grams and 20.4 Grams and 19.6 Grams
  Spleen Wt.: 0.186 Grams and 0.309 Grams and 0.159 Grams
  Disease Score: 1
[2]; [10]
  Body Wt.: 22.5 Grams and 23.8 Grams and 22.2 Grams
  Spleen Wt.: 0.229 Grams and 0.098 Grams and 0.302 Grams
  Disease Score: 1 and 0.5 and 2
[2]; [11]
  Body Wt.: 21.2 Grams and 20.0 Grams and 26.6 Grams
  Spleen Wt.: 0.168 Grams and 0.086 Grams and 0.320 Grams
  Disease Score: 1 and 0 and 2
[2]; [12]
  Body Wt.: 21.6 Grams and 24.0 Grams
  Spleen Wt.: 0.289 Grams and 0.216 Grams and 0.125 Grams
  Disease Score: 1 and 2
[2]; [13]
  Body Wt.: 23.8 Grams and 25.3 Grams and 26.3 Grams
  Spleen Wt.: 0.090 Grams and 0.112 Grams and 0.175 Grams
  Disease Score: 0 and 0.5 and 1
[2]; [14]
  Body Wt.: 23.6 Grams and 22.3 Grams and 24.6 Grams
  Spleen Wt.: 0.112 Grams and 0.341 Grams and 0.086 Grams
  Disease Score: 0.5 and 2
[2]; [15]
  Body Wt.: 26.8 Grams and 27.5 Grams and 24.5 Grams
  Spleen Wt.: 0.399 Grams and 0.157 Grams and 0.083 Grams
  Disease Score: 3 and 1 and 0.5
[2]; [16]
  Body Wt.: 27.6 Grams and 28.0 Grams and 25.5 Grams
  Spleen Wt.: 0.119 Grams and 1.030 Grams and 0.240 Grams
  Disease Score: 0.5 and 4 and 2

## Cc1cn([C@H]2C[C@H](N=[N+]=[N-])[C@@H](CO)O2)c(=O)[nH]c1=O [AZT, 3'azido-3'deoxythymidine, reference compound]
[2]; [9]
  Body Wt.: 21.1 Grams and 20.9 Grams and 19.6 Grams
  Spleen Wt.: 0.097 Grams and 0.108 Grams and 0.096 Grams
  Disease Score: 0 and 0.5
[2]; [12]
  Body Wt.: 20.9 Grams and 20.0 Grams and 22.6 Grams
  Spleen Wt.: 0.090 Grams and 0.104 Grams and 0.086 Grams
  Disease Score: 0
[2]; [14]
  Body Wt.: 23.8 Grams and 23.5 Grams and 25.4 Grams
  Spleen Wt.: 0.118 Grams and 0.114 Grams and 0.112 Grams
  Disease Score: 0.5
[2]; [16]
  Body Wt.: 25.0 Grams and 21.1 Grams and 28.6 Grams
  Spleen Wt.: 0.262 Grams and 0.086 Grams and 0.150 Grams
  Disease Score: 2 and 0 and 1
